Test results published in patent US20120045523A1, “COMBINATION OF A TLR3 LIGAND AND A CHEMOTHERAPY AGENT WHICH ACTS ON THE INTRINSIC "APOPTOSIS" PATHWAY IN THE TREATMENT OF CANCER” (UNIVERSITE CLAUDE BERNARD LYON I, priority 2008, published 2012).
Read-outs that look alike come from different tables or passages of the source.

How the values were obtained:
NCI-H292 cells [1] = experiment: Number of living cells (MTS, CellTiter 96 AQueous One) after chemotherapy and/or poly(I:C); conditions: for CI (combination index): agent in combination with poly(I:C), average CI; for nature of interaction with poly(I:C), from CI: combination with poly(I:C)
Method: NCI-H292 and NCI-H1703 are squamous cell lung cancer cell lines obtained from the American Type Culture Collection (ATCC). The cells are cultured in 100 mm-diameter dishes in complete RPMI 1640 medium with Glutabio (Eurobio Laboratories, Ulis, France) supplemented with 10% fetal calf serum (FCS) (Invitrogen, Cergy Pontoise, France) and containing 100 U/ml of penicillin (Invitrogen, Cergy Pontoise, France), 0.1 mg/ml of streptomycin (Invitrogen, Cergy Pontoise, France), 1 mM of sodium pyruvate (Invitrogen, Cergy Pontoise, France), 10 μM of HEPES (Jacques Boy Biotechnology Institute, Rheims, France). These cells are maintained at 37° C. in an atmosphere of 5% CO2.
Cells were inoculated in 96-well plates at a concentration of 5000 cells in 100 μl of complete medium per well. […] After 2 h of incubation at 37° C., the culture medium was aspirated and replaced with 100 μl of complete medium containing decreasing concentrations of poly(I:C) (100 μg/ml, 20 μg/ml, 4 μg/ml, 0.8 μg/ml); the cells were then cultured for 70 h. Each treatment condition was carried out in duplicate. The results are expressed as the relative number of viable cells in relation to the untreated control cultures.
The analysis was carried out using the CellTiter 96° AQueous One Solution Cell Proliferation Assay kit (Promega, Charbonnière, France) according to the manufacturer's instructions. Briefly, 20 μl of MTS was added to the culture medium of each well. The cells were placed in an incubator for 2 h at 37° C. Absorbance at 490 nm was analyzed using a spectrophotometer (Multiskan® EX; Thermo Fisher Scientific). A second measurement at 690 nm was made to exclude nonspecific absorbance. The baseline optical density (blank) represents the average of three wells containing the culture medium alone and was subtracted from the recorded values. Each value represents the average OD of the duplicates. The results are expressed as relative OD values in relation to the untreated control cultures.
The 50% inhibitory concentrations (IC50s), defined as the concentrations necessary to obtain 50% fewer cells than the untreated control after culture, were determined for each molecule used alone or in combination. The IC50s represent the averages of all the experiments performed. To mathematically determine the nature of the interaction between the two molecules, two complementary methods were used: calculation of the combination index (CI) (Chou et al.: Quantitative analysis of dose-effect relationships: the combined effects of multiple drugs or enzyme inhibitors, Adv Enzyme Regul 1984, 22:27-55) and construction of an isobologram (Steel et al.: Exploitable mechanisms in combined radiotherapy-chemotherapy: the concept of additivity, Int J Radiat Oncol Biol Phys 1979, 5:85-91).
The IC50 chemotherapy unit was homogenized to μg/ml. Together, all of these IC50s can be used to calculate combination indexes (CIs), defined by the equation (IC50(chemotherapy/poly(I:C))/IC50(chemotherapy))+(IC50(poly(I:C)/chemotherapy))/IC50(poly(I:C)))+(IC50(chemotherapy/poly(I:C))×IC50(poly(I:C)/chemotherapy))/(IC50(chemotherapy)×IC50(poly(I:C)))), where IC50 (chemotherapy) and IC50(poly(I:C)) respectively represent IC50s of chemotherapy and of poly(I:C) used alone, and IC50(chemotherapy/poly(I:C)) and IC50(poly(I:C)/chemotherapy) respectively represent IC50s of chemotherapy and poly(I:C) used in combination. The average of all the CIs is calculated in order to obtain the average CI that determines the nature of the interaction between the two molecules, according to its value: a CI of 0.1 to 0.9 indicates synergy; a CI of 0.9 to 1.1 indicates additivity; a CI of 1.1 to 10 indicates antagonism.
To build the isobolograms, the abscissa and the ordinate represent the IC50s of poly (I:C) and of the chemotherapeutic agent, respectively. The IC50 of poly(I:C) used alone is plotted on the x-axis and the IC50 of the chemotherapeutic agent used alone is plotted on the y-axis.

NCI-H1703 cells [2] = experiment: Annexin V-FITC/propidium iodide labeling, flow cytometry (apoptosis); type: cell-based, human; conditions: for effect of 2 h exposure to agent before poly(I:C) on percentage of apoptotic cells: NCIH-1703, annexin V after 24 h, concentrations at IC50, FIG. 4
Text: (§1) The duplexes of control small interfering RNA (siRNA; Dharmacon) and siRNA specific for caspase 8 and caspase 9 (Qiagen) used are as follows: 1) control: ON-TARGETplus siCONTROL Non-Targeting siRNA #3; caspase 8 sense 5′-r(GAG UCU GUG CCC AAA UCA A)dTdT-3′, caspase 8 antisense 5′-r(UUG AUU UGG GCA CAG ACU C)dTdT-3′; caspase 9 sense 5′-r(GAG UGG CUC CUG GUA CGU U)dTdT-3′, caspase 9 antisense 5′-r(AAC GUA CCA GGA GCC ACU C)dTdT-3′. The siRNAs were transfected by the HiPerFect (Qiagen) transfection reagent according to the manufacturer's recommendations. Briefly, NCI-H1703 or NCI-H292 cells are cultured in 100 mm dishes, dislodged by trypsin, placed in 24-well plates at a concentration of 50,000 cells in 400 μl of medium per well and incubated at 37° C. during preparation of the mixes. Mixes for each well of a 24-well plate are prepared as follows: the siRNA duplexes are diluted in 100 μl of serum-free and antibiotic-free culture medium, 3 μl of HiPerFect is added, and then the solution is vortexed and incubated for 5-10 min at room temperature. 100 μl of mix is then added drop by drop to the cells and the mixture is homogenized by shaking the plate. The culture medium is changed the following day. The final siRNA concentration is 5 nM and treatment with poly(I:C) begins 72 h after transfection. For these conditions, the effectiveness of caspase 8 and caspase 9 siRNAs in decreasing the level of expression of caspase 8 and caspase 9 proteins, respectively, were measured by western blot, and reaches roughly 85% for caspase 8 siRNA and 75% for caspase 9 siRNA.
In relation to the mechanism of reduction of the number of living cells, the percentage of cells labeled with annexin V after culture after treatment with poly(I:C) was determined by flow cytometry. […] Seventy-two hours after transfection of the control (sictrl), caspase (sicasp8), caspase 9 (sicasp9) or caspase 8+caspase 9 (sicasp8+9) siRNAs, NCI-H1703 cells are treated with 100 μg/ml of poly(I:C) for 24 h or are not treated. The percentage of annexin V-positive cells is measured by flow cytometry. The results presented are the average of three experiments carried out independently. Error Bar, ±SE.
Poly(I:C) induces apoptosis of NSCLC NCIH-1703 and NCIH-292 cell lines. To determine whether the greater reduction in the number of cells alive after treatment with the combination of poly(I:C) and cisplatin or etoposide resulted at least partially from an increase in apoptosis, the cells were labeled with annexin V after 24 h of culture as described in the “Materials and methods” section above.

NCI-H1703 cells [3] = experiment: Number of living cells (MTS, CellTiter 96 AQueous One) after chemotherapy and/or poly(I:C); type: cell-based, human; conditions: for CI (combination index) / IC50 / nature of interaction with poly(I:C), from CI / reduction of the number of living cells: NCI-H1703; for CI (combination index): agent in combination with poly(I:C), average CI; for nature of interaction with poly(I:C), from CI: combination with poly(I:C); for cytotoxicity at 4 µM: NCI-H1703, NCI-H1703, FIG. 1B, read-out: loss of viable cells; for reduction of the number of living cells: FIG. 1A
NCI-H292 cells [4] = experiment: Annexin V-FITC/propidium iodide labeling, flow cytometry (apoptosis); type: cell-based, human; conditions: NCIH-292; annexin V after 24 h; concentrations at IC50; FIG. 4
Text: as §1, with “100 μl of mix is then added drop by drop to the cells and the mixture is homogenized by shaking the plate. The culture medium is changed the following day. The final siRNA concentration is 5 nM and treatment with poly(I:C) begins 72 h after transfection.” left out, “siRNA. […]” for “siRNA.”

NCI-H1703 cells [5] = experiment: Viability of cells cultured 24 h with poly(I:C) and wortmannin; type: cell-based, human
Method: Similarly, a study was undertaken to determine the viability of cells of the NCI-H1703 human squamous cell lung cancer cell line cultured for 24 h in the presence of TLR3 ligand (poly(I:C), 100 μg/ml) at various concentrations (0 μM, 0.1 μM and 1.0 μM) of wortmannin, a specific PI3 kinase inhibitor.
In the same way, a study was undertaken to determine the percentage of cells of the NCI-H1703 human squamous cell lung cancer cell line in apoptosis (FACS analysis after labeling with annexin V-FITC/propidium iodide) after culture for 24 h in the presence of TLR3 ligand (poly(I:C), 100 μg/ml) with various concentrations (0 μM, 0.1 μM and 1.0 μM) of specific PI3 kinase inhibitor, wortmannin (WM). […] Moreover, the synergy is strong: with 1 μM wortmannin alone, 6% fewer living cells are observed after 24 h; with 100 μg/ml poly(I:C) alone, 26% fewer living cells are observed after 24 h; when both molecules are used in combination at these same concentrations, however, 71% fewer living cells are observed after 24 h.

TLR3 = experiment: Apoptosis induced by TLR3 ligands, with siRNA inhibition of receptors; type: cell-based
Text: “Specific TLR3 ligand” refers to a ligand that is recognized only by the TLR3 membrane receptor, and not by intracellular receptors such as RIG-I, MDA-5 and PKR. Examples of such a ligand includes the ligand poly(A:U) or specific synthetic double-stranded RNA, in contrast with poly(I:C) whose activity is based not only on its interaction with TLR3 but also by intracellular receptors, whereas poly(A:U) acts specifically on TLR3.

[6] = chemotherapeutic agent used alone, 2 h exposure, then 70 h culture, read-out: IC50
[7] = NCI-H292, chemotherapeutic agent used alone, 2 h exposure, then 70 h culture
[8] = Homo sapiens, chemotherapeutic agent used alone, 2 h exposure, then 70 h culture, read-out: IC50

Molecule	IC50 (NCI-H292 cells [1]; Homo sapiens, NCI-H292) [µM]	CI (combination index) (NCI-H292 cells [1]; NCI-H292)	nature of interaction with poly(I:C), from CI (NCI-H292 cells [1]; NCI-H292)	CI (combination index) (NCI-H1703 cells [3])	nature of interaction with poly(I:C), from CI (NCI-H1703 cells [3])	IC50 (NCI-H1703 cells [3]; [8]) [µM]	other results
O=c1[nH]cc(F)c(=O)[nH]1 [5-Fluouracile, 5-fluorouracil]	133	0.78 ± 0.09	moderate synergy	–	–	–	–
N.N.[Cl][Pt][Cl] [Cisplatin, cisplatin]	–	0.50 ± 0.08	strong synergy	0.62 ± 0.03	strong synergy	–	effect of 2 h exposure to agent before poly(I:C) on percentage of apoptotic cells (NCI-H1703 cells [2]): increases the percentage of apoptotic cells; IC50 (NCI-H1703 cells [3]; [6]): 1.1 µM; IC50 (NCI-H292 cells [1]; [7]): 3.4 µM; effect of 2 h exposure to agent before poly(I:C) on percentage of apoptotic cells (NCI-H292 cells [4]): statistically significant only for the NCIH-292 cell line
CC(=O)O[C@@]12CO[C@@H]1C[C@H](O)[C@@]1(C)C(=O)[C@H](O)C3=C(C)[C@@H](OC(=O)[C@H](O)[C@@H](NC(=O)OC(C)(C)C)c4ccccc4)C[C@@](O)([C@@H](OC(=O)c4ccccc4)[C@H]21)C3(C)C [Docetaxel, docetaxel]	10.6	0.68 ± 0.2	moderate synergy	–	–	–	–
COc1cccc2c1C(=O)c1c(O)c3c(c(O)c1C2=O)C[C@@](O)(C(=O)CO)C[C@@H]3O[C@H]1C[C@H](N)[C@H](O)[C@H](C)O1 [Doxorubicin, doxorubicin]	1.03	0.62 ± 0.08	strong synergy	0.72 ± 0.06	strong synergy	3.73	–
COc1cc([C@@H]2c3cc4c(cc3[C@@H](O[C@@H]3O[C@@H]5CO[C@@H](C)O[C@H]5[C@H](O)[C@H]3O)[C@H]3COC(=O)[C@H]23)OCO4)cc(OC)c1O [Etoposide, etoposide]	18.7	0.68 ± 0.11	strong synergy	0.59 ± 0.06	strong synergy	32.7	effect of 2 h exposure to agent before poly(I:C) on percentage of apoptotic cells (NCI-H1703 cells [2]): significant additive effect; cytotoxicity at 4 µM (NCI-H1703 cells [3]; Homo sapiens, etoposide 4 μM, then addition of 60 μg/ml poly(I:C)): ~60%; cytotoxicity at 4 µM (NCI-H1703 cells [3]; Homo sapiens, etoposide alone 4 μM): ~25%; IC50 (NCI-H292 cells [1]; Homo sapiens, NCI-H292, read-out: concentration of etoposide in combination that decreases living cells by 50%): ~8 µM; effect of 2 h exposure to agent before poly(I:C) on percentage of apoptotic cells (NCI-H292 cells [4]): significant additive effect
Nc1ccn([C@@H]2O[C@H](CO)[C@@H](O)C2(F)F)c(=O)n1 [Gemcitabine, gemcitabine]	0.6	1.3 ± 0.24	antagonism	1.0 ± 0.07	additivity without synergy	0.9	–
O=C1[O][Pt]2([NH][C@@H]3CCCC[C@H]3[NH]2)[O]C1=O [Oxaliplatin, oxaliplatin]	–	–	strong synergy	–	strong synergy	–	IC50 (NCI-H1703 cells [3]; [6]): 170 µM; IC50 (NCI-H292 cells [1]; [7]): 123 µM
CC(=O)O[C@H]1C(=O)[C@@]2(C)[C@H]([C@H](OC(=O)c3ccccc3)[C@]3(O)C[C@H](OC(=O)[C@H](O)[C@@H](NC(=O)c4ccccc4)c4ccccc4)C(C)=C1C3(C)C)[C@]1(OC(C)=O)CO[C@@H]1C[C@@H]2O [Paclitaxel, paclitaxel]	0.21	0.71 ± 0.0064	moderate synergy	0.83 ± 0.012	moderate synergy	0.12	–
COC[C@H]1OC(=O)c2coc3c2[C@@]1(C)C1=C(C3=O)[C@@H]2CCC(=O)[C@@]2(C)C[C@H]1OC(C)=O [wortmannin]	–	–	–	–	–	–	fewer living cells (NCI-H1703 cells [5]; 1 μM wortmannin + 100 μg/ml poly(I:C) in combination): 71%; fewer living cells (NCI-H1703 cells [5]; 1 μM wortmannin alone): 6%
polyadenylic-polyuridylic acid [poly(A:U)]	–	–	–	–	–	–	induction of apoptosis (TLR3; cells sensitive to poly(I:C)): triggers apoptosis
polyinosinic-polycytidylic acid [poly(I:C)]	–	–	–	–	–	–	fraction of cells in apoptosis (annexin V-positive) (NCI-H1703 cells [2]; NCI-H1703, 100 μg/ml poly(I:C), 24 h, 11% in control wells, FIG. 2): ⅓; percentage of apoptotic cells (annexin V-positive) (NCI-H1703 cells [2]; NCI-H1703, 100 μg/ml poly(I:C), 24 h, caspase 8 expression inhibited by siRNA): ~20%; effect of suppression of caspase 9 expression on poly(I:C)-induced apoptosis (NCI-H1703 cells [2]; NCI-H1703, 100 μg/ml poly(I:C), 24 h, caspase 9 siRNA): no significant effect; reduction of the number of living cells (NCI-H1703 cells [3]; poly(I:C) 4 μg/ml after pre-incubation for 2 h with 20 μM etoposide): ~70%; reduction of the number of living cells (NCI-H1703 cells [3]; poly(I:C) alone 4 μg/ml): ~35%; IC50 (NCI-H1703 cells [3]; poly(I:C) used alone, 50% fewer cells than untreated control): 19.9 µg/mL; effect of siRNA inhibition of RIG-I, MDA-5 and PKR expression on poly(I:C) apoptotic activity (TLR3; siRNA against RIG-I, MDA-5, PKR): has no effect; effect of siRNA inhibition of TLR3 or TRIF on poly(I:C)-induced apoptosis (TLR3; siRNA against TLR3 or TRIF): inhibits apoptosis; IC50 (NCI-H292 cells [1]; NCI-H292, poly(I:C) used alone, 50% fewer cells than untreated control): 14.3 µg/mL; fewer living cells (NCI-H1703 cells [5]; 100 μg/ml poly(I:C) alone): 26%
